Where “and” joins values, the source holds several entries; their conditions need not be identical. Identical values can stand only once. Like-named read-outs stand apart in the source and are kept apart here.
Experiments:
[1] = in vitro transport studies; ref Takeda, data on file; cited from earlier work
cytochrome P450 enzymes = settings: in decreasing order of relative contributions; cited from earlier work
[2] = adult patients, cited from earlier work
CYP2C19 = settings: cited from earlier work
CYP3A = settings: coadministration of ketoconazole; cited from earlier work
[3] = 1.7 mg/m^2 dose level; cited from earlier work
[4] = Population PK analysis of bortezomib in pediatric ALL/AML patients; type: in vivo, human; settings: for half-life: human, plasma, intravenous, 1.3 mg/m^2, half-life, geometric mean (%CV)
efflux pumps = settings: in vitro transport studies; ref Takeda, data on file; cited from earlier work
[5] = varying grades of renal impairment; cited from earlier work
[6] = system: blood 20S proteasome activity; settings: 1.2 and 1.6 mg/m^2 IV; cited from earlier work
[7] = 1.6 mg/m^2 dose level; cited from earlier work
[8] = final population PK model, bootstrap, 1.3 mg/m^2 IV repeat dose

## CC(C)C[C@H](NC(=O)[C@H](Cc1ccccc1)NC(=O)c1cnccn1)B(O)O [bortezomib]
[1]
  apparent permeability: high apparent permeability
Cytochrome P450 enzymes
  CYP enzymes mediating hepatic microsomal metabolism: primary involvement of CYPs 3A4, 2C19, and 1A2
[2]; 1.0 mg/m^2 dose
  BSA-normalized clearance, mean (%CV): 12.9 (70%) L/(h·m^2)
[2]; 1.3 mg/m^2 dose
  BSA-normalized clearance, mean (%CV): 14.9 (63%) L/(h·m^2)
CYP2C19
  effect of omeprazole coadministration on bortezomib PK: did not alter bortezomib PK
CYP3A
  increase in bortezomib area under the concentration-time curve: 35%
[3]
  dose-limiting toxicities: Two dose‐limiting toxicities (grade 3 confusion and grade 4 hypotension with fever)
[4]; all patients (N = 104), 2-16 y, individual estimates, 1.3 mg/m^2 IV repeat dose
  clearance, geometric mean (%CV): 7.79 (25%) L/(h·m^2)
[4]; all patients (N = 104), sum of V1, V2, V3
  volume of distribution at steady-state, geometric mean (%CV): 834 (39%) L/m^2
[4]; base model
  Interindividual variability (CV) of CL: 41.2%
  Interindividual variability (CV) of Q3: 38.3%
  Interindividual variability (CV) of V1: 50.7%
[4]; final model
  Interindividual variance of CL: 29.7 %CV
  Interindividual variance of Q3: 29.8 %CV
  Interindividual variance of V1: 34.6 %CV
[4]; [8]
  V1 (central volume), population median: 10.0 L
  V2 (peripheral volume 1), population median: 32.5 L
  V3 (peripheral volume 2), population median: 975 L
[4]; final population PK model, power model
  BSA effect on Q3 (exponent): 0.75
[4]; α disposition phase, all patients (N = 104)
  half-life: 0.103 h
[4]; β disposition phase, all patients (N = 104)
  half-life: 1.58 h
[4]; γ (terminal/elimination) disposition phase, all patients (N = 104)
  half-life: 100 h
[4]; patients 2 to 11 years old (N = 62)
  BSA-normalized clearance, mean (%CV): 8.11 (25%) L/(h·m^2) and 8.11 L/(h·m^2)
[4]; patients aged 12 to 16 years (N = 42)
  BSA-normalized clearance, mean (%CV): 7.94 (25%) L/(h·m^2) and 7.94 L/(h·m^2)
Efflux pumps
  substrate for efflux pumps: not a substrate for efflux pumps
[5]
  effect of renal impairment on bortezomib clearance: did not alter bortezomib clearance
[6]
  inhibition of blood 20S proteasome activity: Dose‐dependent inhibition
  time of maximal inhibition of blood 20S proteasome activity after dosing: ≤ 1 h
[7]
  dose-limiting toxicities: 2 dose‐limiting toxicities of thrombocytopenia

Source: paper PMC5561493 (Journal of Clinical Pharmacology, 2017)
